The record followed here is patent publication US20230106836A1, “METHOD OF USING BIOSURFACTANT-PRODUCING BACTERIA AGAINST FUNGAL AND BACTERIAL PATHOGENS” (THE ROYAL INSTITUTION FOR THE ADVANCEMENT OF …, priority 2020, published 2023).

SMILES strings stand for the structures.

In one assay the test system is E. coli. The experiment in a line: Diffusion plate assay of TLC fractions, organic acids and bleach. Type of assay: cell-based, Escherichia coli. The settings on record: organic acids 1%, bleach 1.3%. The protocol: (§1) Bacterial cells were removed by centrifugation (5000×g at 4° C.) and the cell—free supernatant (CFS) was acidified to pH 2.0 with 2N HCL at 4° C. for 16 h resulting in a precipitate that was collected by centrifugation (5000×g for 10 min at 4° C.). The acid precipitate fraction (APF) was dissolved in water (100 mg/mL) and adjusted to pH 7.0 using 1N NaOH. The CFS sample and clean BHM culture medium were concentrated by freeze-drying for 48 h. All samples were stored at −80° C. until further use.
(§2) Separation of CFS and APF fractions was performed by thin layer chromatography (TLC). Acid-cleaned glass plates (20×20 cm) were coated with a thin layer of silica emulsion (160 grams of silica with 15% (w/v) calcium sulphate and with fluorescent indicator GF254 dissolved in 500 mL of double distilled water) purchased from Sigma-Aldrich and dried for 16-18 h at 22° C. Activation of silica plates was done by heating the TLC plates at 120° C. for 30 min prior to use. An amount of 100 mg of each of CFS and APF were dissolved in 400 μL of chloroform: methanol (2:1, v/v) and separated on activated TLC plates with chloroform: methanol: water (70:26:4) as the developing solvent system. Plates were observed under UV (λ=254 nm) and the retention factor (Rf) values were calculated as distance travelled by the samples over the distance travelled by solvent. Only APF separated fractions were used for bioactivity assays. Bands corresponding to the desired Rf values were scraped and collected for extraction. Bands of the same Rf value from different plates were pooled together and extracted twice with chloroform: methanol (v/v/; 2:1). The collected fractions were vacuum-concentrated for 4-6 h at −60° C. using a Speed Vac™ v78100 (Labconco Corp, Kansas City Mo., USA), re-dissolved in 50 μL of methanol and tested against target bacteria and fungi, as well as for biosurfactant activity. Methanol (50 μL) was used as a negative control.
(§3) The biosurfactant activity of the fractions was tested using the oil-spreading and the drop collapse methods, as described above. Fractions were also tested for their antimicrobial activities against a number of bacteria and fungi using the Burkholder diffusion plate method as noted above. Briefly, 10 μL of the dissolved fractions were spotted in the middle of the plates. Positive controls consisted of 10 μL of bleach and of each of the following organic acids: 1% (v/v) of acetic acid, formic acid, citric acid and lactic acid. […] Individual trials were performed in triplicate and the entire assay was repeated twice to confirm the findings.

The next assay has as its system Botrytis cinerea. The experiment in a line: Antimicrobial assay of TLC fractions against fungi. Type of assay: cell-based. The following applies: strain F014, Botrytis cinerea; organic acids 1%, bleach 1.3%. How it is done: as §1, §2, §3
Another assay concerns Rhizoctonia solani. The experiment in a line: Antimicrobial assay of TLC fractions against fungi. The assay is classed as cell-based. The following applies: organic acids 1%, bleach 1.3%. The protocol: as §1, §2, §3
For another assay, the system named is X. campestris. The assay is described as follows: Diffusion plate assay of TLC fractions, organic acids and bleach. Type of assay: cell-based. The settings on record: strain B07.007, Xanthomonas campestris; organic acids 1%, bleach 1.3%. The protocol:
as §1, §2, §3

The subject of assay [1] is Salmonella enterica serovars. The assay is described as above. The assay is classed as cell-based. The settings on record: organic acids 1%, bleach 1.3%. The protocol: as §1
as §2, with “Only APF separated fractions were used for bioactivity assays.” left out
as §3

[2] abbreviates: strain AG1-1A (ROS-2A), R. solani.
[3] abbreviates: strain AG3 (114), Rhizoctonia solani.

Regarding `O=CO` [FA], the “Microbial activity (clearing zone), fractions, organic acids and bleach” value in the assay on E. coli (strain E3-6, Escherichia coli) is on record as “+++ (clearing zone of 5 mm (+++))”; with E. coli (strain E10-6, E. coli), “+++ (clearing zone of 5 mm (+++))”; with E. coli (strain E14-6, E. coli), “+++ (clearing zone of 5 mm (+++))”; with E. coli (strain E15-6, E. coli), “+++ (clearing zone of 5 mm (+++))”; in the assay on Botrytis cinerea, “+++ (clearing zone of 5 mm (+++))”; with Rhizoctonia solani (setting [2]), “+++ (clearing zone of 5 mm (+++))”. The “Microbial activity (clearing zone), fractions, organic acids and bleach” value in the assay with Rhizoctonia solani (setting [3]) and in the assay on X. campestris was “+++ (clearing zone of 5 mm (+++))” each time.
For the compound `O=C(O)CC(O)(CC(=O)O)C(=O)O` [CA], the “Microbial activity (clearing zone), fractions, organic acids and bleach” value with E. coli (strain E3-6, Escherichia coli) is listed as “+ ((+) clearing zone of 3 mm)”; in the assay on E. coli (strain E10-6, E. coli), “+ ((+) clearing zone of 3 mm)”; in the assay with E. coli (strain E14-6, E. coli), “+ ((+) clearing zone of 3 mm)”; with E. coli (strain E15-6, E. coli), “+ ((+) clearing zone of 3 mm)”; in the assay with Botrytis cinerea, “+ ((+) clearing zone of 3 mm)”; with Rhizoctonia solani (setting [2]) it was “+ ((+) clearing zone of 3 mm)”. The results for the “Microbial activity (clearing zone), fractions, organic acids and bleach” value with Rhizoctonia solani (setting [3]) and with X. campestris were “+ ((+) clearing zone of 3 mm)” and “++ ((++) clearing zone of 4 mm)”, respectively.
Turning to `CC(=O)O` [AA], the “Microbial activity (clearing zone), fractions, organic acids and bleach” value was “++ ((++) clearing zone of 4 mm)” in the assay with E. coli (strain E3-6, Escherichia coli); “++ ((++) clearing zone of 4 mm)” in the assay on E. coli (strain E10-6, E. coli); “++ ((++) clearing zone of 4 mm)” in the assay with E. coli (strain E14-6, E. coli); “++ ((++) clearing zone of 4 mm)” in the assay with E. coli (strain E15-6, E. coli); “++ ((++) clearing zone of 4 mm)” in assay [1] (strain MAE14, S. enterica Typhimurium); “++ ((++) clearing zone of 4 mm)” in assay [1] (strain MAE299, S. enterica Typhimurium). In addition, the “Microbial activity (clearing zone), fractions, organic acids and bleach” value in assay [1] (strain MAE775, S. enterica Typhimurium) is “+++ (clearing zone of 5 mm (+++))”; in assay [1] (strain PARC#5, S. enterica Agona), “++ ((++) clearing zone of 4 mm)”; in assay [1] (strain SCS2, S. enterica I: Rough-O: e, h: e, n), “++ ((++) clearing zone of 4 mm)”; in assay [1] (strain SL1, S. enterica Newport), “++ ((++) clearing zone of 4 mm)”; in assay [1] (strain SL2, S. enterica Hartford), “++ ((++) clearing zone of 4 mm)”; in assay [1] (strain UMR1, Salmonella enterica Typhimurium), “++ ((++) clearing zone of 4 mm)”. Further, the “Microbial activity (clearing zone), fractions, organic acids and bleach” value with Botrytis cinerea was “++ ((++) clearing zone of 4 mm)”; in the assay with Rhizoctonia solani (setting [2]) it was “++ ((++) clearing zone of 4 mm)”; in the assay on Rhizoctonia solani (setting [3]) it was “++ ((++) clearing zone of 4 mm)”; with X. campestris it was “+++ (clearing zone of 5 mm (+++))”.
With `CC(O)C(=O)O` (stereo not shown) [LA], the “Microbial activity (clearing zone), fractions, organic acids and bleach” value is on record as “+ ((+) clearing zone of 3 mm)” in the assay on E. coli (strain E3-6, Escherichia coli); “+ ((+) clearing zone of 3 mm)” in the assay with E. coli (strain E10-6, E. coli); “+ ((+) clearing zone of 3 mm)” with E. coli (strain E14-6, E. coli); “+ ((+) clearing zone of 3 mm)” in the assay with E. coli (strain E15-6, E. coli); “+ ((+) clearing zone of 3 mm)” in the assay with Botrytis cinerea; “+ ((+) clearing zone of 3 mm)” in the assay with Rhizoctonia solani (setting [2]). Also, the “Microbial activity (clearing zone), fractions, organic acids and bleach” value in the assay with Rhizoctonia solani (setting [3]) is listed as “+ ((+) clearing zone of 3 mm)”; with X. campestris, “++ ((++) clearing zone of 4 mm)”.
